Data from patent US12064480B2, “Immunigenic alpha-branched trehalose-diesters” (GLAXOSMITHKLINE BIOLOGICALS SA, priority 2018, dated 2024).

Legend:
[1] = test system: mouse Raw cell line; assay: Cytokine production (TNFα) from mouse Raw cells; type: cell-based; details: for TNFα potency in mouse cell line compared to human cells: mouse Raw cells vs human cells; for TNFα potency in mouse cell line compared to human cells / TNFα efficacy/peak levels relative to the other reference compounds / TNFα potency relative to sTDCM: FIG. 4A
Description: The compounds were screened for their ability to induce TNFα from the mouse Raw cell line. An aim of this study was to determine if species specific differences in responses to compounds may be observed.

[2] = test system: human PBMCs; assay: Cytokine production from human PBMCs (Luminex multiplex panel); type: cell-based; details: human cells
Procedure: TDM (trehalose-6,6′-dimycolate) was obtained from Sigma. TDB (6,6′-dibehenoyl-α,α′-trehalose) was obtained from Avanti Polar Lipids. MMG (glycerol monomycolate) was prepared according to the procedure of Andersen et. al. sTDCM (synthetic trehalose dicorynomycolate) was obtained from Sigma-Aldrich (Catalog Number S3452).
PBMCs were obtained via leukapheresis from normal donors (AllCells, Berkeley, CA). Upon receipt PBMCs were repeatedly washed in 1×PBS and cryopreserved in freezing media (50% RPMI, 40% FCS, 10% DMSO) for future use. For assay, cells were immediately thawed into RPMI media, 10% heat inactivated FBS, 1× penicillin/streptomycin/glutamine (complete media), washed once and resuspended to the desired cell concentration in complete media. Cells were treated with the indicated compound concentrations by addition to plates containing serial dilution of the stock compound in diluent (50% isopropanol/50% isooctane). Compounds were applied, 20 ul final volume, to the bottom of a tissue culture plate and solvent was allowed to fully evaporate (i.e. plate coating) before cell addition.
Supernatants were harvested from treated cells 18-24 h post cell application. Supernatants were analyzed using a Luminex multiplex panel for analytes TNFα, IL-1β, IL-6, IFNγ, IL-12p70 and IL-23 per the manufacturer's instructions.

Compound | TNFα potency in mouse cell line compared to human cells [1] | TNFα efficacy/peak levels relative to the other reference compounds ([1]; mouse Raw cells) | TNFα potency relative to sTDCM ([1]; mouse Raw cells) | fold less potent than sTDCM ([1]; mouse Raw cells, TNFα) | TNFα induction (activity) ([1]; mouse Raw cells, FIG. 4) | MMG/sTDCM potency difference [2]
CCCCCCCCCCCCCCCCCCCCCC(=O)OC[C@H]1O[C@H](O[C@H]2O[C@H](COC(=O)CCCCCCCCCCCCCCCCCCCCC)[C@@H](O)[C@H](O)[C@H]2O)[C@H](O)[C@@H](O)[C@@H]1O [TDB, 6,6′-dibehenoyl-α,α′-trehalose] | more potent in the mouse cell line as compared to human cells | higher efficacy/peak levels | equivalent potency | – | – | –
glycerol monomycolate [MMG] | – | equivalent levels | – | over 100 fold | some activity | ~10 fold
trehalose-6,6′-dimycolate [TDM] | more potent in the mouse cell line as compared to human cells | higher efficacy/peak levels | equivalent potency | – | – | –
